{
  "source": "patent US9403877B2",
  "about": "“Peptide agents for cancer therapy” (INTER-K PTY LIMITED, priority 2012, dated 2016)",
  "key": {"HT29 cells": {"tested_on": "HT29 cells", "experiment": "Uptake of FITC-labelled peptide by confocal microscopy", "assay_type": "cell-based, human", "conditions": "serum-free culture, after 24 hours, compared to FITC alone", "description": "The ability of 10 Ala to cross the plasma membrane of HT29 cells was assessed by means of confocal microscopy of cells exposed to 10Ala conjugated to fluorosceine isothiocyanate (FITC) under serum-free culture conditions. The peptide used in this study comprised the sequence KRAKAKAAAAR (SEQ ID No. 25) (identified as FITC-K10(4)Ala) with an extra lysine residue at the amino terminus (to which the FITC label is attached). […] A microphotograph showing localization of the FITC-labelled peptide to the cytoplasm of cells compared to cells treated with FITC alone is shown in FIG. 9."}, "HT29 colon cancer cells [1]": {"tested_on": "HT29 colon cancer cells", "experiment": "In vitro growth inhibition MTT assay, HT29", "assay_type": "cell-based, human", "conditions": "for Inhibition of HT29 cell growth/proliferation (MTT), in words: serum-free medium, 72 hours, peptide 50 nM-100 μM, compared with RSKAKNPLYR or 10Ala", "description": "(§1) The human colon cancer cell line HT29, ovarian cancer cell line A2780, breast cancer cell lines MCF-7 and MDA468, and a prostate cancer cell line (DU145) were used for in vitro studies. The cell lines were cultured at 37° C., under air containing 5% CO2 and passaged regularly for optimal growth. Cells were maintained in DMEM medium containing 10% fetal bovine serum. All culture medium preparations were further supplemented with penicillin/streptomycin (100 μg/ml), and\n(§2) 1.2 In Vitro Growth Inhibition MTT Assay\nCells in logarithmic growth were transferred to 96-well plates in 100 μl of serum-containing medium at a density of 4000 cells per well. […] […] Growth-inhibitory effects were evaluated by MTT (3-[4,5-dimethylthiazol-2-yl]2,5-diphenyl-tetrazolium bromide) cell growth assay and absorbance was read at 540 nm. Growth of control cells was exponential during the whole incubation period. Mean surviving fractions±SEM values (minimum of 3 separate experiments) were determined for each peptide/cisplatin concentration."}, "colon cancer cells": {"tested_on": "colon cancer cells", "conditions": "PCT/AU2010/000203; cited from earlier work"}, "[2]": {"tested_on": "ovarian (A2780) cancer cell line", "experiment": "In vitro growth inhibition MTT assay, A2780, serum-free", "assay_type": "cell-based, human", "conditions": "72 hours", "description": "as §1, §2\n(§3) Cells in logarithmic growth were transferred to 96-well plates in 100 μl of serum-containing medium at a density of 4000 cells per well. After 24 hours the previously added serum-containing medium was removed and 200 μl serum free medium (SFM) with or without peptide was added to each of triplicate wells. Drug exposure experiments were carried out on cell lines using varying concentrations of peptides (50 nM-100 μM) and cells were exposed to peptides for 72 hours in serum-free culture medium. Growth-inhibitory effects were evaluated by MTT (3-[4,5-dimethylthiazol-2-yl]2,5-diphenyl-tetrazolium bromide) cell growth assay and absorbance was read at 540 nm. Growth of control cells was exponential during the whole incubation period. Mean surviving fractions±SEM values (minimum of 3 separate experiments) were determined for each peptide/cisplatin concentration."}, "[3]": {"tested_on": "prostate (DU145) cancer cell line", "experiment": "In vitro growth inhibition MTT assay, DU145, serum-free", "assay_type": "cell-based, human", "conditions": "72 hours", "description": "as §1, §2, §3"}, "[4]": {"tested_on": "breast (MCF-7) cancer cell line", "experiment": "In vitro growth inhibition MTT assay, MCF-7, serum-free", "assay_type": "cell-based, human", "conditions": "72 hours", "description": "as §1, §2, §3"}, "[5]": {"tested_on": "MDA468 breast cancer cells", "experiment": "Modified MTT assay, MDA468, 5% serum, 48 hours", "assay_type": "cell-based, human", "conditions": "for Growth inhibition of MDA468 breast cancer cells: concentrations of 0.5 μM or greater", "description": "as §3\n(§4) The growth inhibitory activity of various concentrations of the 10 RVK peptide (RVKVKVVVVR) (SEQ ID No. 24) with an 8 mer polyarginine sequence coupled to its C-terminal end (i.e., RVKVKVVVVRRRRRRRRR (SEQ ID No. 26), referred to herein as 10 RVK Arg) on MDA468 breast cancer cells was assessed by a modified form of the MTT assay described in Example 1.2 in which 3000 cells per well were cultured for 48 hours in culture medium containing 5% serum. For the negative control, an 8 mer polyargine peptide (8 Arg) was used. The results shown in FIG. 10 are the average of 3 replicate wells for each dosage.\n(§5) The growth inhibitory activity of various concentrations of the 10 RVK Arg peptide on MDA468 breast cancer and DU145 prostate cancer cells was assessed by MTT assay involving incubating the cells in 5% serum containing medium for 48 hours as described in Example 2. As a comparison, inhibition of the growth of the cells by the 10 RVK peptide with a 7 mer polyarginine sequence coupled to its C-terminal end (i.e., RVKVKVVVVRRRRRRRR (SEQ ID No. 27), referred to herein as 10 RVK 7 Arg) and the 10 RVK peptide with an 8 mer polyargine sequence coupled to its N-terminal end (i.e., RRRRRRRRRVKVKVVVVR (SEQ ID No. 28), referred to herein as Arg 10 RVK) were also assessed. The results for inhibition of the breast cancer cells are shown in FIG. 11 while the results for treatment of the prostate cancer cells are shown in FIG. 12."}, "[6]": {"tested_on": "DU145 prostate cancer cells", "experiment": "Modified MTT assay, DU145, 5% serum, 48 hours", "assay_type": "cell-based, human", "conditions": "for Growth inhibition of DU145 prostate cancer cells: 5% serum, 48 hours, concentrations of 0.5 μM or greater", "description": "as §3, §4, §5"}, "HT29 colon cancer cells [7]": {"tested_on": "HT29 colon cancer cells", "conditions": "in vitro in the presence of serum, Agrez et al., 2011; cited from earlier work"}},
  "note": "Entries after “also recorded” stand apart in the source; their conditions may differ. Where no end group is shown, it is not given here. The star is where a group is joined. FITC = O=C1OC2(c3ccc(O)cc3Oc3cc(O)ccc32)c2ccc(NC(=S)*)cc21",
  "data": [
    {"substance": "FITC-KRAKAKAAAAR ({FITC}-KRAKAKAAAAR) [FITC-K10(4)Ala]", "values": [
      {"measurement": "Internalization / localization of FITC-labelled peptide in cells", "setting": "HT29 cells", "result": "cytoplasmic localization of peptide"}
    ]},
    {"substance": "KARARAAAAK (10Ala peptide in which the positions of one or both arginine and lysine residues have been inverted)", "values": [
      {"measurement": "Inhibition of HT29 cell growth/proliferation (MTT), in words", "setting": "HT29 colon cancer cells [1]", "result": "significantly reduced the ability of the peptides to inhibit cell growth"}
    ]},
    {"substance": "KEKLKNPLFK (10-mer peptide from B2 integrin cytoplasmic domains) [10 mer peptide derived from the β2 integrin cytoplasmic domain]", "values": [
      {"measurement": "Inhibition of proliferation of colon cancer cells in vitro (previously reported)", "setting": "colon cancer cells", "result": "effective at inhibiting proliferation"}
    ]},
    {"substance": "RAAKAARAAK (Scrambled peptide with Alanine in the place of all non-charged residues in peptide of sequence 2.) [scrambled alanine-substituted peptide]", "values": [
      {"measurement": "Inhibition of HT29 cell growth/proliferation (MTT), in words", "setting": "HT29 colon cancer cells [1]", "result": "ineffective"}
    ]},
    {"substance": "RAKAK (shorter variant of 10Ala)", "values": [
      {"measurement": "Inhibition of HT29 cell growth/proliferation (MTT), in words", "setting": "HT29 colon cancer cells [1]", "result": "minimal effect"}
    ]},
    {"substance": "RAKAKAAAAAR (variant peptide of 10Ala having 5 alanine residues between the lysine and the C-terminal arginine)", "values": [
      {"measurement": "Inhibition of HT29 cell growth/proliferation (MTT), in words", "setting": "HT29 colon cancer cells [1]", "result": "significantly less effective at inhibiting growth"}
    ]},
    {"substance": "RAKAKAAAAR (B6 derived peptide)", "values": [
      {"measurement": "Growth inhibitory effect in serum-containing medium", "setting": "HT29 colon cancer cells [1]; serum-containing medium, data not shown", "result": "adversely affected"},
      {"measurement": "Inhibition of HT29 cell growth/proliferation (MTT), in words", "setting": "HT29 colon cancer cells [1]", "result": "ability of both peptides to inhibit cell growth was similar"},
      {"measurement": "Inhibition of HT29 cell growth/proliferation (MTT), in words", "setting": "HT29 colon cancer cells [1]; listed as 10Ala", "result": "significantly more effective at inhibiting cell proliferation"},
      {"measurement": "Inhibition of A2780 cell growth", "setting": "[2]", "result": "equally effective"},
      {"measurement": "Inhibition of DU145 cell growth", "setting": "[3]", "result": "equally effective"},
      {"measurement": "Inhibition of MCF-7 cell growth", "setting": "[4]", "result": "equally effective"}
    ]},
    {"substance": "RAKAKAAAR (short variant of 10Ala)", "values": [
      {"measurement": "Inhibition of HT29 cell growth/proliferation (MTT), in words", "setting": "HT29 colon cancer cells [1]", "result": "minimal effect; also recorded: significantly less effective at inhibiting growth"}
    ]},
    {"substance": "RAKARAAAAK (10Ala peptide wherein the position of one or both arginine and lysine residues have been inverted)", "values": [
      {"measurement": "Inhibition of HT29 cell growth/proliferation (MTT), in words", "setting": "HT29 colon cancer cells [1]", "result": "significantly reduced the ability of the peptides to inhibit cell growth"}
    ]},
    {"substance": "RARAKNPLYK (10 mer peptide from B3 integrin cytoplasmic domain) [10 mer peptide derived from the β3 integrin cytoplasmic domain]", "values": [
      {"measurement": "Inhibition of proliferation of colon cancer cells in vitro (previously reported)", "setting": "colon cancer cells", "result": "effective at inhibiting proliferation"}
    ]},
    {"substance": "RKKR (Charged residues for growth inhibitory effect)", "values": [
      {"measurement": "Inhibition of HT29 cell growth/proliferation (MTT), in words", "setting": "HT29 colon cancer cells [1]", "result": "not sufficient to inhibit cancer cell proliferation in vitro to the same degree"}
    ]},
    {"substance": "RKRK (A scrambled version of the charged residues RKKR)", "values": [
      {"measurement": "Inhibition of HT29 cell growth/proliferation (MTT), in words", "setting": "HT29 colon cancer cells [1]", "result": "significantly less effective at inhibiting growth of the cells"}
    ]},
    {"substance": "RRRRRRRRRVKVKVVVVR (10 RVK peptide with an 8 mer polyargine sequence coupled ot its N-terminal end) [Arg 10 RVK]", "values": [
      {"measurement": "Growth inhibition of MDA468 breast cancer cells", "setting": "[5]; 5% serum, 48 hours", "result": "markedly inhibited growth"},
      {"measurement": "Growth inhibition of DU145 prostate cancer cells", "setting": "[6]", "result": "markedly inhibited growth"}
    ]},
    {"substance": "RSKAKNALYR (short variant of sequence 2, scrambled)", "values": [
      {"measurement": "Inhibition of HT29 cell growth/proliferation (MTT), in words", "setting": "HT29 colon cancer cells [1]", "result": "not seen"}
    ]},
    {"substance": "RSKAKNPLAR (A short variant peptide of sequence 2)", "values": [
      {"measurement": "Inhibition of HT29 cell growth/proliferation (MTT), in words", "setting": "HT29 colon cancer cells [1]", "result": "not seen"}
    ]},
    {"substance": "RSKAKNPLYR (Non naturally occurring peptide derived from the B6 binding sequence)", "values": [
      {"measurement": "Growth inhibitory effect in the presence of serum (previously shown)", "setting": "HT29 colon cancer cells [7]", "result": "adversely affected"}
    ]},
    {"substance": "RSKAKR (SHORT VARIANT OF THE PEPTIDE FROM SEQUENCE 2)", "values": [
      {"measurement": "Inhibition of HT29 cell growth/proliferation (MTT), in words", "setting": "HT29 colon cancer cells [1]", "result": "failed to inhibit proliferation"}
    ]},
    {"substance": "RSRARNPLYR (10 mer peptide from B5 integrin cytoplasmic domain) [10 mer peptide derived from the β5 integrin cytoplasmic domain]", "values": [
      {"measurement": "Inhibition of proliferation of colon cancer cells in vitro (previously reported)", "setting": "colon cancer cells", "result": "effective at inhibiting proliferation"}
    ]},
    {"substance": "RVKVKVVVVRRRRRRRR (10RVK peptide with a 7 mer polyarginine sequence coupled to its C-terminal end) [10 RVK 7 Arg]", "values": [
      {"measurement": "Growth inhibition of MDA468 breast cancer cells", "setting": "[5]; 5% serum, 48 hours", "result": "markedly inhibited growth"},
      {"measurement": "Growth inhibition of DU145 prostate cancer cells", "setting": "[6]", "result": "markedly inhibited growth"}
    ]},
    {"substance": "RVKVKVVVVRRRRRRRRR (8 mer polyarginine sequence couple to the C-terminal end of 10 RVK peptide) [10 RVK Arg]", "values": [
      {"measurement": "Growth inhibitory activity on MDA468 compared to 10 RVK with penetratin coupled to its N-terminal", "setting": "[5]; 5 μM to 10 μM, results not shown", "result": "enhanced cell growth inhibitory activity"},
      {"measurement": "Growth inhibition of MDA468 cells", "setting": "[5]; 5% serum, 48 hours, concentration 5 μM to 50 μM", "result": "totally inhibited growth"},
      {"measurement": "Growth inhibition of MDA468 breast cancer cells", "setting": "[5]; 5% serum, 48 hours", "result": "markedly inhibited growth"},
      {"measurement": "Growth inhibitory activity on DU145 compared to 10 RVK with penetratin coupled to its N-terminal", "setting": "[6]; 10 μM to 50 μM, results not shown", "result": "enhanced cell growth inhibitory activity"},
      {"measurement": "Growth inhibition of DU145 prostate cancer cells", "setting": "[6]", "result": "markedly inhibited growth"}
    ]}
  ]
}
